According to PubChem BioAssay AID248 (DTP/NCI, 2004):
Where “and” joins values, the source holds several entries; their conditions need not be identical. Equal entries are not always repeated. Inconclusive results and toxic doses are left out. Rule as the data show it: active = T/C of 150% or more; inactive = T/C below 125%.

Tested on: L1210 leukemia ip in BDF1 mice, survival T/C
Assay: NCI In Vivo Anticancer Drug Screen. Data for tumor model L1210 Leukemia (intraperitoneal) in B6D2F1 (BDF1) mice
Conditions: endpoint: mean survival time, higher = longer survival
In short: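 Value reflects the ratio of survival in compound-treated mice to survival in vehicle-treated controls, with both groups carrying the same transplanted tumor.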

[1] = dose: 100.0 mg/kg/injection, schedule: Q01DX001 (ip), vehicle: carboxymethylcellulose (CMC)
[2] = dose: 200.0 mg/kg/injection, schedule: Q01DX001 (ip), vehicle: carboxymethylcellulose (CMC)
[3] = dose: 400.0 mg/kg/injection, schedule: Q01DX001 (ip), vehicle: carboxymethylcellulose (CMC)
[4] = dose: 100.0 mg/kg/injection, schedule: Q01DX001 (ip), vehicle: saline
[5] = dose: 200.0 mg/kg/injection, schedule: Q01DX001 (ip), vehicle: saline
[6] = dose: 100.0 mg/kg/injection, schedule: Q01DX009 (ip), vehicle: saline with Tween-80
[7] = dose: 200.0 mg/kg/injection, schedule: Q01DX009 (ip), vehicle: saline with Tween-80
[8] = dose: 400.0 mg/kg/injection, schedule: Q01DX009 (ip), vehicle: saline with Tween-80
[9] = dose: 400.0 mg/kg/injection, schedule: Q01DX001 (ip), vehicle: saline
[10] = dose: 100.0 mg/kg/injection, schedule: Q04DX003 (ip), vehicle: acetone

Measured: T/C

CC1CN=C(Cc2ccc(NC(=O)c3ccc(C(=O)Nc4ccc(CC5=NCC(C)N5)cc4)cc3)cc2)N1 (stereo not drawn)
inactive: dose: 3.75 mg/kg/injection, schedule: Q01DX Z (ip), vehicle: water 91 % of control | dose: 7.5 mg/kg/injection, schedule: Q01DX Z (ip), vehicle: water 101 % of control

O=C1N(Cc2ccccc2)C(=O)C(Cc2ccccc2)(Cc2ccccc2)C(=O)N1Cc1ccccc1
inactive: [1] 101 % of control | [2] 97 % of control | [3] 95 % of control

NC(CCl)=NC1CC1
inactive: dose: 25.0 mg/kg/injection, schedule: Q04DX002 (ip), vehicle: saline 106 % of control | dose: 50.0 mg/kg/injection, schedule: Q04DX002 (ip), vehicle: saline 106 % of control | dose: 100.0 mg/kg/injection, schedule: Q04DX002 (ip), vehicle: saline 110 % of control

CCOC1CCN(CCCn2c3ccccc3c3ccc(C(C)=O)cc32)CC1
inactive: [4] 95 % of control | [5] 92 % of control

COc1ccc(C(=O)/C=C/c2ccc(C(C)C)cc2)cc1
inactive: dose: 75.0 mg/kg/injection, schedule: Q04DX003 (ip), vehicle: saline 94 % of control | dose: 150.0 mg/kg/injection, schedule: Q04DX003 (ip), vehicle: saline 100 % of control | dose: 300.0 mg/kg/injection, schedule: Q04DX003 (ip), vehicle: saline 89 % of control

NCc1cccc2ccccc12
inactive: dose: 62.5 mg/kg/injection, schedule: Q01DX001 (ip), vehicle: saline 109 % of control | [4] 112 % of control | dose: 125.0 mg/kg/injection, schedule: Q01DX001 (ip), vehicle: saline 104 % of control | [5] 96 % of control

CCOC(=O)CNC(=O)Nc1ccc(OC)cc1
inactive: [6] 100 % of control | [7] 93 % of control | [8] 100 % of control

Nc1ccc2c(c1)C(O)c1cc(Br)ccc1-2 (stereo not drawn)
inactive: [1] 108 % of control | [2] 100 % of control | [3] 105 % of control

C[N+](C)(CC(=O)Nc1cccc(C(F)(F)F)c1)CC(=O)Nc1cccc(C(F)(F)F)c1
inactive: dose: 12.5 mg/kg/injection, schedule: Q01DX009 (ip), vehicle: saline with Tween-80 88 % of control | dose: 25.0 mg/kg/injection, schedule: Q01DX009 (ip), vehicle: saline with Tween-80 94 % of control | dose: 50.0 mg/kg/injection, schedule: Q01DX009 (ip), vehicle: saline with Tween-80 113 % of control

CCOC(=O)Nc1cc(NCC(O)CN(C)c2ccc(OC)cc2)c([N+](=O)[O-])c(N)n1 (stereo not drawn)
inactive: dose: 100.0 mg/kg/injection, schedule: Q01DX001 (ip), vehicle: saline with Tween-80 95 % of control | dose: 200.0 mg/kg/injection, schedule: Q01DX001 (ip), vehicle: saline with Tween-80 93 % of control | dose: 400.0 mg/kg/injection, schedule: Q01DX001 (ip), vehicle: saline with Tween-80 88 % of control

CC(=O)OCCN1C(=O)CN=C(c2ccccn2)c2cc(Cl)ccc21
inactive: dose: 100.0 mg/kg/injection, schedule: Q01DX009 (ip), vehicle: Klucel (hydroxypropylcellulose) (HPC) 99 % of control | dose: 100.0 mg/kg/injection, schedule: Q04DX003 (ip), vehicle: Klucel (hydroxypropylcellulose) (HPC) 100 % of control | dose: 200.0 mg/kg/injection, schedule: Q01DX009 (ip), vehicle: Klucel (hydroxypropylcellulose) (HPC) 102 % of control | dose: 200.0 mg/kg/injection, schedule: Q04DX003 (ip), vehicle: Klucel (hydroxypropylcellulose) (HPC) 101 % of control | dose: 400.0 mg/kg/injection, schedule: Q01DX009 (ip), vehicle: Klucel (hydroxypropylcellulose) (HPC) 94 % of control | dose: 400.0 mg/kg/injection, schedule: Q04DX003 (ip), vehicle: Klucel (hydroxypropylcellulose) (HPC) 97 % of control

C/C(=N/O)c1ccc(O)cc1
inactive: [6] 103 % of control | [7] 96 % of control | [8] 97 % of control

CC(=O)c1cc2c(cc1C)OCO2
inactive: [4] 103 % of control | [5] 97 % of control | [9] 101 % of control

O=S(=O)(/C=C/c1ccccc1)c1ccc2ccccc2c1
inactive: dose: 100.0 mg/kg/injection, schedule: Q01DX001 (ip), vehicle: acetone 97 % of control | dose: 100.0 mg/kg/injection, schedule: Q01DX009 (ip), vehicle: acetone 92 % of control | [10] 102 % of control | dose: 200.0 mg/kg/injection, schedule: Q01DX001 (ip), vehicle: acetone 93 % of control | dose: 200.0 mg/kg/injection, schedule: Q01DX009 (ip), vehicle: acetone 92 % of control | dose: 200.0 mg/kg/injection, schedule: Q04DX003 (ip), vehicle: acetone 105 % of control | dose: 400.0 mg/kg/injection, schedule: Q01DX001 (ip), vehicle: acetone 90 % of control | dose: 400.0 mg/kg/injection, schedule: Q01DX009 (ip), vehicle: acetone 94 % of control | dose: 400.0 mg/kg/injection, schedule: Q04DX003 (ip), vehicle: acetone 102 % of control

COCn1cnc2c(F)ncnc21
inactive: dose: 6.25 mg/kg/injection, schedule: Q01DX009 (ip), vehicle: saline 94 % of control | dose: 6.25 mg/kg/injection, schedule: Q04DX003 (ip), vehicle: saline 101 % of control | dose: 12.5 mg/kg/injection, schedule: Q01DX009 (ip), vehicle: saline 100 % of control | dose: 12.5 mg/kg/injection, schedule: Q04DX003 (ip), vehicle: saline 104 % of control | dose: 25.0 mg/kg/injection, schedule: Q01DX009 (ip), vehicle: saline 101 % of control | dose: 25.0 mg/kg/injection, schedule: Q04DX003 (ip), vehicle: saline 102 % of control

COC(=O)C(CCSC)NC(=O)C(NC(=O)c1cnc2ccccc2n1)C(C)C (stereo not drawn)
inactive: [1] 91 % of control | [2] 89 % of control | [3] 96 % of control

O=C1c2ccccc2Cc2cscc21
inactive: dose: 100.0 mg/kg/injection, schedule: Q04DX003 (ip), vehicle: saline with Tween-80 91 % of control | dose: 200.0 mg/kg/injection, schedule: Q04DX003 (ip), vehicle: saline with Tween-80 91 % of control

NC(Cc1c[nH]c2ccccc12)C(=O)OCc1ccccc1 (stereo not drawn)
inactive: dose: 6.25 mg/kg/injection, schedule: Q01DX009 (ip), vehicle: water 101 % of control | dose: 12.5 mg/kg/injection, schedule: Q01DX009 (ip), vehicle: water 99 % of control | dose: 25.0 mg/kg/injection, schedule: Q01DX009 (ip), vehicle: water 98 % of control and 106 % of control | dose: 50.0 mg/kg/injection, schedule: Q01DX009 (ip), vehicle: water 107 % of control | [6] 104 % of control | dose: 100.0 mg/kg/injection, schedule: Q01DX009 (ip), vehicle: water 97 % of control and 86 % of control | [7] 104 % of control | [8] 93 % of control

COC(=O)C1CC(NC(C)=O)C(OC(C)=O)C1OC(C)=O (stereo not drawn)
inactive: [4] 94 % of control | [5] 94 % of control | [9] 104 % of control

COC(=O)c1ccccc1N=NNc1ccc2c(=O)c3ccccc3[nH]c2c1
inactive: dose: 100.0 mg/kg/injection, schedule: Q04DX003 (ip), vehicle: saline 95 % of control | dose: 200.0 mg/kg/injection, schedule: Q04DX003 (ip), vehicle: saline 86 % of control | dose: 400.0 mg/kg/injection, schedule: Q04DX003 (ip), vehicle: saline 86 % of control

NC1(C(=O)O)CCCc2ccc(N(CCCl)CCCl)cc21 (stereo not drawn)
inactive: dose: 0.45 mg/kg/injection, schedule: Q01DX009 (ip), vehicle: carboxymethylcellulose (CMC) 101 % of control | dose: 0.95 mg/kg/injection, schedule: Q01DX009 (ip), vehicle: carboxymethylcellulose (CMC) 124 % of control | dose: 1.8 mg/kg/injection, schedule: Q01DX009 (ip), vehicle: carboxymethylcellulose (CMC) 119 % of control | dose: 6.0 mg/kg/injection, schedule: Q01DX001 (ip), vehicle: carboxymethylcellulose (CMC) 121 % of control | dose: 11.0 mg/kg/injection, schedule: Q01DX001 (ip), vehicle: carboxymethylcellulose (CMC) 114 % of control and 124 % of control | dose: 16.0 mg/kg/injection, schedule: Q01DX001 (ip), vehicle: carboxymethylcellulose (CMC) 112 % of control | dose: 48.0 mg/kg/injection, schedule: Q01DX001 (ip), vehicle: carboxymethylcellulose (CMC) 114 % of control | dose: 50.0 mg/kg/injection, schedule: Q01DX001 (ip), vehicle: carboxymethylcellulose (CMC) 123 % of control
active: dose: 8.3 mg/kg/injection, schedule: Q01DX009 (ip), vehicle: carboxymethylcellulose (CMC) 152 % of control | dose: 10.8 mg/kg/injection, schedule: Q01DX009 (ip), vehicle: carboxymethylcellulose (CMC) 168 % of control | dose: 12.5 mg/kg/injection, schedule: Q01DX009 (ip), vehicle: carboxymethylcellulose (CMC) 163 % of control and 165 % of control | dose: 18.0 mg/kg/injection, schedule: Q01DX009 (ip), vehicle: carboxymethylcellulose (CMC) 161 % of control

CC1CCN1c1ccccc1 (stereo not drawn)
inactive: [10] 88 % of control
